Laboratory results: US6268397A, “Use of (α-aminomethyl-3,4-dichlorobenzyl) thioacetamide derivatives for inhibiting dopamine reuptake and new compounds for this use” (Laboratoire. L. Lafon, priority 1995, dated 2001)
pIC50, pKi: −log10 of the molar value. Where a name gives a salt, the structure may show the parent alone. Read-outs that look alike come from different tables or passages of the source.

Assays:
mice [1] = assay: Toxicity in mice via the i.p. route (LD0, LD100); format: in vivo
Description: The LD0 and LD100 values in mice via the i.p. route are also given in this table.

[2] = biological target: T1, site of dopamine reuptake (Rattus norvegicus, UniProt P23977); assay: Inhibition of binding at the site of dopamine reuptake in vitro in rat striatum ([3H]mazindol); design: species or system rat (male, CD Sprague-Dawley); settings: pH 7.7, mean of three tests
T1 construct: The striata are removed immediately and then stored at -80° C. until used; from tissue; host or cells: rat striatum membranes (male CD Sprague-Dawley)
T1 sequence (P23977 whole entry): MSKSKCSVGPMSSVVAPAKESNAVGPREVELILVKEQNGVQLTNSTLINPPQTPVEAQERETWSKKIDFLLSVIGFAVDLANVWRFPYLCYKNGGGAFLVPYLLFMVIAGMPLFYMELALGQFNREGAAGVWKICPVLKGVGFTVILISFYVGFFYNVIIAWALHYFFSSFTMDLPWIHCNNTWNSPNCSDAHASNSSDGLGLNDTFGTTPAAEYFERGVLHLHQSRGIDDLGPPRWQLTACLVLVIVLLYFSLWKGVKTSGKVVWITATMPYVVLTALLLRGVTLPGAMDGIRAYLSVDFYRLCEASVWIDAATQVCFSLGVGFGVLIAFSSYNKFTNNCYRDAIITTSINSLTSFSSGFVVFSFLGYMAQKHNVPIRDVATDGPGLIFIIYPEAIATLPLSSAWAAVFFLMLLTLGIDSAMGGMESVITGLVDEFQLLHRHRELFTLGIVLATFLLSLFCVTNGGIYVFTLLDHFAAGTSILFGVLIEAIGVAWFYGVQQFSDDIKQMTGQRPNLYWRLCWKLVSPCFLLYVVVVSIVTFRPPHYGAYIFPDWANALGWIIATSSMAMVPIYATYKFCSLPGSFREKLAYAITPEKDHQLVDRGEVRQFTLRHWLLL
Procedure: Inhibition Of Binding At the Site of Dopamine Reuptake In Vitro In Rat Striatum
Rats, (male, CD Sprague-Dawley, 200-250 g) are sacrificed by decapitation. The striata are removed immediately and then stored at -80° C. until used. On the day of the manipulation, the striata are thawed, coated with buffer and then brought into suspension. This suspension is then poured into the centrifuge tubes, made up to 10 ml with pH 7.7 buffer (50 mM Tris (HCl), 120 mM NaCl, 5 mM KCl) and thereafter centrifuged at 20,000 rpm for 15 minutes. The pellet is resuspended in 10 ml of buffer and is then subjected to a second centrifugation (20,000 rpm for 15 minutes). The above procedure is repeated, so that the homogenate undergoes a third centrifugation identical to the previous two. The pellet thereby obtained is suspended in a few ml of buffer and then homogenized. The membrane suspension is then diluted in a requisite volume. Increasing concentrations of the test compounds dissolved in the buffer are distributed. Aliquots of the membrane suspension are then added. The radioactive ligand ([^3 H]mazindol), used as a label of the type of site studied, is then distributed manually in the tubes, which are thereafter incubated (final volume 1 ml).
The reaction is stopped by filtration through a Harvester system (Whatman GF/B filter strip). The filter strip is then washed three times with 5 ml of buffer before being placed in an automatic cutting system.
The cut filters fall into counting vials, and 4 ml of scintillation fluid are distributed automatically by the system. Each sample is subjected to counting of the radioactivity using a liquid scintillation counter.
Three series of tests (test 1, test 2 and test 3) are carried out with each compound for determination of the IC50, each determination being carried out on two different samples.
The specific binding is defined as the difference between the total binding and the non-specific binding (displace by an excess of non-radioactive ligand). The values obtained in counts per minute (cpm) are then converted into disintegrations per minute (dpm) in accordance with the efficiency of the counter.
The IC50 is defined as the concentration of the substance under study needed to displace 50% of the specifically bound radioactive label.
The experimental data emanating from the liquid scintillation counter (Kontron) are stored on diskette, managed by a program (Convert) and then analysed by means of Ligand* software, which calculates the 50% inhibitory concentration (IC50) and the inhibition constant Ki [formula]
where [L] represents the concentration of the radioactive ligand and Kd the dissociation constant of this same ligand. (The values of the IC50 and of Ki are inversely proportional to the affinity of the product under study for the binding site.

mice [3] = assay: Locomotor activity of mice; format: in vivo, mice (male, NMRI); settings: recorded over 30 minutes
Procedure: Effects on the Locomotor Activity of Mice
Half an hour after receiving CRL 41 789 or CRL 41 790 intraperitoneally in distilled water, groups of 6 to 24 mice (male, NMRI, C.R.E. Janvier, 18-22 g) are placed individually in crossed-beam activity cages, where their locomotor activity (number of rays crossed) is recorded over 30 minutes.

[4] = Solubility of the product; format: physicochemical
mice [5] = assay: Test of "behavioural despair" in mice; format: in vivo, mice (male, CD1)
Description: Effects on the Test of "Behavioural Despair"in Mice
Half an hour after receiving CRL 41 789 or CRL 41 790 intraperitoneally in distilled water, groups of 6 or 12 mice (male, CD1, Charles River, 18-22 g) are placed individually in a high vessel made of transparent glass, filled with water to a height of 6 cm. The total period of immobility between the beginning of the 3rd minute and the end of the 6th minute following immersion of the animal is noted.

rats = assay: Induction of stereotyped movements in rats; format: in vivo, rat (male, CD, Sprague-Dawley); settings: i.p.
Procedure: Induction of Stereotyped Movements in Rats
Groups of 6 rats (male, CD, Sprague-Dawley, Charles River, 160-200 g) receive CRL 41 789 or CRL 41 790 intraperitoneally in distilled water (5 ml/kg), and are immediately place in Flexiglas cages (20×10×10cm). The stereotyped movements are scored from 0 to 3 every 10 minutes until they have disappeared.

[6] = system: anaesthetized rat striatum; assay: Extracellular levels of neuro-mediators and metabolites in anaesthetized rat striatum (intracerebral microdialysis); format: in vivo, rat (male, Sprague-Dawley CD); settings: doses of 16, 32 or 64 mg/kg i.p.; for 3-methoxytyramine (3MT) concentration in the dialysate / dopamine concentration in the dialysate: hydrochloride
Procedure: Effect On The Extracellular Levels Of Neuro-Mediators And Metabolites In Anaesthetized Rat Striatum (Intracerebral Microdialysis)
This determination is obtained by high performance liquid chromatography coupled with and electro-chemical detection.
HPLC: Spherisorb cartridge, ODS-2 (5 μm), L=[…], =4 mm, Merck. Mobile phase: 0.1 M potassium phosphate, 0.1 M citric acid, octane-sulphonic acid 50 mg/l, 0.1 mM EDTA, 4% methanol, ph 4.80 , pump output 0.9 ml/min
electrochemical detection: BAS detector, LC-4C, +750 mV
analyser: Millenium, Waters
Rats (male, Sprague-Dawley CD, Charles River, 280-300 g) anaesthetized with chloral hydrate (400 mg/kg, i.p.) are placed in a stereotactic apparatus. The micro-dialysis probe (CMA/11 L=3 mm, =0.24 mm, Carnegie) is implanted according to the coordinates of the Paxinos and Watson atlas in the anterior portion of the left striatum: I=10, L=2.4, H=-6.1.
Ringer's fluid (CaCl2 =2.4 mM, KCl=4 mM, NaCl=147 mM) is perfused at 2 μl/min into the probe. The dialysates collected every 20 minutes are cooled (to approximately 6° C.) and then analysed.
After one hour of collection, groups of 6 rats receive intraperitoneally in a volume of 5 ml/kg:
either an injection of isotonic sodium chloride solution,
or the test compound dissolved in distilled water at doses of 16, 32 or 64 mg/kg.
In the dialysate, the dopamine (DA), 3,4-dihydroxyphenylacetic acid (DOPAC), homovanillic acid (HVA) and 3-methoxytyramine (3MT) concentrations are measured by electrochemical detection and quantified with respect to a standard series, and are corrected in accordance with the efficiency of the probe determined in vitro before each test.
Only tests in which the probes display an efficiency of more than 5% are taken into account.

[7] = Inhibition of binding at the site of dopamine reuptake IC50, rat striatum
[8] = Inhibition of binding at the site of dopamine reuptake Ki, rat striatum
[9] = rat striatum, read-out: Inhibition of binding at the site of dopamine reuptake IC50
[10] = rat striatum, read-out: Inhibition of binding at the site of dopamine reuptake Ki

| SMILES | LD0 (mice [1]) [mg/kg] | LD100 (mice [1]) [mg/kg] | pIC50 [2, 7] | pKi [2, 8] | LD0 (mice [1]; hydrochloride) [mg/kg] | LD100 (mice [1]; hydrochloride) [mg/kg] | solubility in ethanol [4] | solubility in ether [4] | solubility in ethyl acetate [4] | solubility in water [4] | pIC50 [2, 9] | pKi [2, 10] | 3-methoxytyramine (3MT) concentration in the dialysate [6] | dopamine concentration in the dialysate [6] | solubility in methanol [4] | further results |
| --- | --- | --- | --- | --- | --- | --- | --- | --- | --- | --- | --- | --- | --- | --- | --- | --- |
| CC(C)(C)NCC(SCC(N)=O)c1ccc(Cl)c(Cl)c1 (racemic) [CRL 41 414, [α-(tert-butylaminomethyl)-3,4-dichlorobenzyl]thioacetamide] | 128 | 256 | 7.51 | 7.20 |  |  |  |  |  |  |  |  |  |  |  |  |
| CC(C)(C)NCC(SCC(N)=O)c1ccc(Cl)c(Cl)c1 (single isomer, unassigned) [CRL 41 789, 1(-)-[α-(tert-butylaminomethyl)-3,4-dichlorobenzyl]thioacetamide hydrochloride] |  |  |  |  | 64 | 256 | soluble | insoluble | insoluble | soluble | 7.36 | 7.62 | significant increase | significant increase |  | locomotor activity (mice [3]; i.p., 2, 8 and 32 mg/kg): marked and statistically significant increase in the locomotor activity of the mice is observed, the increase rising with the dose; period of immobility (mice [5]; i.p., 0.5, 2, 8 and 32 mg/kg): a decrease in the period of immobility is observed, the decrease rising with the dose; period of immobility, significance of the effect (mice [5]; i.p., 8 and 32 mg/kg): marked and statistically significant; stereotyped movements (rats; 16 and 32 mg/kg): appearance of intense and lasting stereotyped movements; DOPAC concentration in the dialysate [6]: without modification; HVA concentration in the dialysate [6]: without modification |
| CC(C)(C)NCC(SCC(N)=O)c1ccc(Cl)c(Cl)c1 (single isomer, unassigned) [CRL 41 790, d(+)-[α-(tert-butylaminomethyl)-3,4-dichlorobenzyl]thioacetamide hydrochloride] |  |  |  |  | 128 | 512 | soluble | insoluble | insoluble | soluble | 5.96 | 6.21 | does not cause any modification | does not cause any modification | soluble | locomotor activity (mice [3]; i.p., even at 64 mg/kg): does not give rise to any increase in the locomotor activity; period of immobility (mice [5]; i.p., even at the high dose of 64 mg/kg): does not give rise to any decrease in the period of immobility; stereotyped movements (rats; even at the high dose of 128 mg/kg): does not cause the appearance of any stereotyped movement |
| CCC(C)(C)NCC(SCC(N)=O)c1ccc(Cl)c(Cl)c1 (stereo not drawn) [CRL 42 059, [α-(tert-amylaminomethyl)-3,4-dichlorobenzyl]thioacetamide hydrochloride] | 30 | 256 | 7.13 | 7.34 |  |  |  | insoluble | insoluble | soluble |  |  |  |  |  | solubility in alcohols ([4]; alcohols): soluble |
| NC(=O)CSC(CNC12CC3CC(CC(C3)C1)C2)c1ccc(Cl)c(Cl)c1 (stereo not drawn) [CRL 42 060, [α-(1-adamantylaminomethyl)-3,4-dichlorobenzyl]thioacetamide hemifumarate] | 128 | 1024 | 7.40 | 7.36 |  |  |  | insoluble | insoluble | insoluble |  |  |  |  | soluble | solubility in DMSO ([4]; DMSO): soluble |
